Tests used:
Assay type in all cases: biochemical
[1] = tested on: WRN (aa S2-S1235) variants; test: ATPase activity of WRN mutants (ADP-Glo, DNA stimulated ATPase activity); conditions: for Ratio to WT: Table 10, ATPase activity; for Observed Helicase Activity (AU/min): Table 10, ATPase activity of WRN mutants
Experimental: (§1) Point mutations were made in the His-tagged WRN construct used for biochemical characterization (aa S2-S1235). Cysteine 580 (Walker A motif), 727 (linker), 864 (Domain 2A) and 1041 (RQC domain) were each mutated to both Serine and Alanine using site directed mutagenesis, for a total of eight mutants. Purified proteins were assayed in both helicase and ATPase assays. Cys580 mutation to either Ser or Ala abolished all activity, consistent with Walker A motif cysteine function. Cys864 (D2) mutation to alanine and Cys1041 (RQC domain) had no significant impact on helicase or ATPase activity. Cys727 abolished helicase activity (Table 9), whether it was mutated to Ala or Ser. ATPase activity for Cys727 mutants was reduced but not abolished (Table 10). Table 9 is the panel of the nine variant WRN helicase proteins that were screen using a flourscence-based DNA unwinding assay with an increase in flourscence intensity indicating DNA unwinding. Table 10 is the panel of the nine variant WRN helicase proteins that were screened using ADP-Glo assay to measure DNA stimulated ATPase activity, with an increase in luminescence indicating ATP hydrolysis.

[2] = tested on: WRN (aa S2-S1235) variants; test: Helicase activity of WRN mutants (fluorescence-based DNA unwinding assay); conditions: for Ratio to WT: Table 9, helicase activity; for Observed Helicase Activity (AU/min): Table 9, helicase activity of WRN mutants
Experimental: as §1

WRN [3] = target: T1, WRN (Homo sapiens, UniProt Q14191); test: WRN ATPase activity assay (ADP-Glo); conditions: 1-hr pre-incubation with enzyme; 100 μM ATP, 25 nM forked dsDNA, 1 nM WRN; geometric mean of at least 2 replicates
T1 construct: A His-tagged construct of WRN (AA S2-S1235) was produced and used for the ATPase assay; His; made in house; host or cells: Sf9 insect cells (baculovirus)
T1 sequence (Q14191 2-1235): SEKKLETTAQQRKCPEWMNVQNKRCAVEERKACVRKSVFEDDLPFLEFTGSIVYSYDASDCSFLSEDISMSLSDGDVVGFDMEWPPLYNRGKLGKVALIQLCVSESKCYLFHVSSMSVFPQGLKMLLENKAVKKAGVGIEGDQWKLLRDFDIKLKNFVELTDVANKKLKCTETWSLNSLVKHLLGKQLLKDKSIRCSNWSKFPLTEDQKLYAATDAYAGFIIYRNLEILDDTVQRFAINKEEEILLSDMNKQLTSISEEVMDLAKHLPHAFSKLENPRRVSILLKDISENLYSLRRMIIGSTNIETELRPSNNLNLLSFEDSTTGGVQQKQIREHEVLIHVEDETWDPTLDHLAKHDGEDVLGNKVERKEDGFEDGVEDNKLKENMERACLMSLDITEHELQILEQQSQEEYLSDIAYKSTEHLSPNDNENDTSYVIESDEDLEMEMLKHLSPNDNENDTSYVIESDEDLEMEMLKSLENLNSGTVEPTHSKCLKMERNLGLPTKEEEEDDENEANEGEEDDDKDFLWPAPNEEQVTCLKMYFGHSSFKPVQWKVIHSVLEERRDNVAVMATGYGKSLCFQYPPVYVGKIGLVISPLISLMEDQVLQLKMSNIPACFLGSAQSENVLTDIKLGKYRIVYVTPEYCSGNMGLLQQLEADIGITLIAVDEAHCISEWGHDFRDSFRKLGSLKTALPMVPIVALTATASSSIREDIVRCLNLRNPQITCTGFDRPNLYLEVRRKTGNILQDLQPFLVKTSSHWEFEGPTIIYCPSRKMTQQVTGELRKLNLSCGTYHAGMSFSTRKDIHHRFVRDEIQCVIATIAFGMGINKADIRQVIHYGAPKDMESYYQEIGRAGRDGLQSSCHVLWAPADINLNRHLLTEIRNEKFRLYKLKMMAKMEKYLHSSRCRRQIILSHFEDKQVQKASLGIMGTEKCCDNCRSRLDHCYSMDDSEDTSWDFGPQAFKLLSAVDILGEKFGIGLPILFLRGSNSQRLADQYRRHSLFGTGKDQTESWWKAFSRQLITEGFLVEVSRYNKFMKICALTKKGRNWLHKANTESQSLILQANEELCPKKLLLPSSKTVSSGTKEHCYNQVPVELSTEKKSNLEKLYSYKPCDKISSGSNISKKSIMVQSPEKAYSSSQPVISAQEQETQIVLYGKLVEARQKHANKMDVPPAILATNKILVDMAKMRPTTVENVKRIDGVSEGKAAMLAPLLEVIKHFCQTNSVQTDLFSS

WRN [4] = target: T1, WRN; test: WRN Helicase activity assay (fluorescence DNA unwinding); conditions: 1-hr pre-incubation with enzyme; 100 μM ATP, 25 nM forked dsDNA, 1 nM WRN; geometric mean of at least 2 replicates

Molecule | Ratio to WT [1] | Ratio to WT [2] | IC50 (WRN [3]) | IC50 (WRN [4]) | Observed Helicase Activity (AU/min) [1] | Observed Helicase Activity (AU/min) [2]
5. C864A: His-tagged WRN construct (aa S2-S1235), Cysteine 864 (Domain 2A) mutated to Alanine | 0.90 | 0.94 | – | – | 70.52 AU/min | 60.75 AU/min
C=CC(=O)Nc1ccccc1-c1c(C)n(CC(=O)Nc2ccc(C(F)(F)F)cc2)c2nc(CC)c(C)c(=O)n12 [Example 39, N-(2-(7-Ethyl-2,6-dimethyl-5-oxo-1-(2-oxo-2-((4-(trifluoromethyl)phenyl)amino)ethyl)-1,5-dihydroimidazo[1,2-a]pyrimidin-3-yl)phenyl)acrylamide] | – | – | 0.1 to 0.5 µM | 0.1 to 0.5 µM | – | –
C=CC(=O)Nc1ccccc1-c1c(C)nc2n(CC(=O)Nc3ccc(F)cc3)c(C)c(C)n2c1=O [Example 19, N-(2-(1-(2-((4-Fluorophenyl)amino)-2-oxoethyl)-2,3,7-trimethyl-5-oxo-1,5-dihydroimidazo[1,2-a]pyrimidin-6-yl)phenyl)acrylamide] | – | – | < 0.1 µM | < 0.1 µM | – | –
C=CC(=O)Nc1cc(C(=O)NC2CCOCC2)ccc1-c1c(CC)nc2n(CC(=O)Nc3ccc(C(F)(F)F)cc3)c(C)c(C)n2c1=O [Example 32, 3-Acrylamido-4-(7-ethyl-2,3-dimethyl-5-oxo-1-(2-oxo-2-((4-(trifluoromethyl)phenyl)amino)ethyl)-1,5-dihydroimidazo[1,2-a]pyrimidin-6-yl)-N-(tetrahydro-2H-pyran-4-yl)benzamide] | – | – | < 0.1 µM | < 0.1 µM | – | –
C=CC(=O)Nc1ccccc1-c1c(CC)nc2n(CC(=O)Nc3ccc(F)cc3)c(C)c(C)n2c1=O [Example 18, N-(2-(7-Ethyl-1-(2-((4-fluorophenyl)amino)-2-oxoethyl)-2,3-dimethyl-5-oxo-1,5-dihydroimidazo[1,2-a]pyrimidin-6-yl)phenyl)acrylamide] | – | – | < 0.1 µM | < 0.1 µM | – | –
8. C1041S: His-tagged WRN construct (aa S2-S1235), Cysteine 1041 (RQC domain) mutated to Serine | 0.59 | 0.62 | – | – | 45.74 AU/min | 40.28 AU/min
1. C580A: His-tagged WRN construct (aa S2-S1235), Cysteine 580 (Walker A motif) mutated to Alanine | 0.03 | 0.02 | – | – | 2.548 AU/min | 1.04 AU/min

More lines, main results first:

Ratio to WT [1] | Ratio to WT [2] | IC50 (WRN [3]) | IC50 (WRN [4]) | Molecule | Observed Helicase Activity (AU/min) [1] | Observed Helicase Activity (AU/min) [2]
0.54 | 0.44 | – | – | 6. C864S: His-tagged WRN construct (aa S2-S1235), Cysteine 864 (Domain 2A) mutated to Serine | 42.02 AU/min | 28.49 AU/min
0.29 | 0.07 | – | – | 3. C727A: His-tagged WRN construct (aa S2-S1235), Cysteine 727 (linker) mutated to Alanine | 22.65 AU/min | 4.619 AU/min
0.01 | 0.00 | – | – | 2. C580S: His-tagged WRN construct (aa S2-S1235), Cysteine 580 (Walker A motif) mutated to Serine | 0.8014 AU/min | 0 AU/min
0.85 | 0.93 | – | – | 7. C1041A: His-tagged WRN construct (aa S2-S1235), Cysteine 1041 (RQC domain) mutated to Alanine | 66.66 AU/min | 60.14 AU/min
– | – | < 0.1 µM | < 0.1 µM | C=CC(=O)Nc1cc(C(=O)N2CCOCC2)ccc1-c1c(CC)nc2n(CC(=O)Nc3ccc(C(F)(F)F)cc3)c(C)c(C)n2c1=O [Example 35, N-(2-(7-Ethyl-2,3-dimethyl-5-oxo-1-(2-oxo-2-((4-(trifluoromethyl)phenyl)amino)ethyl)-1,5-dihydroimidazo[1,2-a]pyrimidin-6-yl)-5-(morpholine-4-carbonyl)phenyl)acrylamide] | – | –

Source: US20250270217A1, “IMIDAZ0[1,2-A]PYRIMIDINE-5(1 H)-ONES HAVING A COVALENT WARHEAD AT THE 3-POSITION AS WRN INHIBITORS” (Incyte Corporation, priority 2023, published 2025)
